Assay results published in patent US10668056B2, “Pharmaceutical composition comprising indole derivatives, process for preparation and use thereof” (VIVOLUX AB, priority 2015, dated 2020).

Key:
[1] = Stability study of lyophilised powder, accelerated 25° C./60% RH
Description: The stability study of the di-hydrochloride ethanol co-crystal precipitate and of the lyophilized di-hydrochloride salt was conducted in accordance with the International Conference on Harmonizations (ICH) guideline Q1A (R2) Stability Testing of New Drug Substances and Products. All analytical instruments used to analyze the stability samples during the study are qualified in compliance with current cGMP.
The LOQ is 0.05%, peaks <than LOQ was recorded as <0.05%.

[2] = Stability study of lyophilised powder, 2-8° C.; assay type: physicochemical; settings: for Any individual purity / Assay / RRT 1.13 (impurity) / RRT 1.23-1.24 (impurity) / RRT 1.47-1.51 (impurity) / Specified impurity* (hydrolysis impurity) / Total impurities / Water content / Z-isomer RRT 0.92-0.93 / pH: 2-8° C.
[3] = Solubility of lyophilisate in water; assay type: physicochemical
Description: Glucose and mannitol were evaluated as excipients, both alone and in combination with NaCl. The best result regarding solubility, texture of the lyophilised cake and suppression of impurity formation was obtained with 5% (w/v) mannitol as additive.
The best result concerning formation of impurities and texture of the freeze dried cake was obtained with the freeze drying cycle described in Table 3 and the mannitol content set at 5%.

[4] = Stability of compound A2 in aqueous media; assay type: physicochemical
Description: Also, it is understood that the pH is of significance for the stability of compound A2 in aqueous media with the best stability at pH around 1-4, higher concentration of the substance results in lower pH. 1 mg/ml of said aqueous solution has a pH about 2-3.

CC(=NNc1nnc2c(n1)[nH]c1c(C)cccc12)c1ccccn1.Cl.Cl [Compound A2]
bacterial growth / sterility ([1]; 24 months period in room temperature): No bacterial growth was detected | appearance ([1]; 25° C./60% RH): yellow to orange freeze dried cake during the whole test period | appearance after reconstitution ([1]; 25° C./60% RH): yellow to orange solution without visible particles | reconstitution time ([1]; 25° C./60% RH): up to 3 minutes | Any individual purity ([1]; 25° C./60% RH, 0 months): 0.4% | Assay ([1]; 25° C./60% RH, 0 months): 97.8 % w/w | RRT 1.13 (impurity) ([1]; 25° C./60% RH, 0 months): 0.05% | RRT 1.23-1.24 (impurity) ([1]; 25° C./60% RH, 0 months): 0.06% | RRT 1.47-1.51 (impurity) ([1]; 25° C./60% RH, 0 months): 0.37% | Specified impurity* (hydrolysis impurity) ([1]; 25° C./60% RH, 0 months): <0.5% | Total impurities ([1]; 25° C./60% RH, 0 months): 0.7% | Water content ([1]; 25° C./60% RH, 0 months): 0.33% | Z-isomer RRT 0.92-0.93 ([1]; 25° C./60% RH, 0 months): 0.1% | pH ([1]; 25° C./60% RH, 0 months): 1.6 | Any individual purity ([1]; 25° C./60% RH, 1 month): 0.1% | Assay ([1]; 25° C./60% RH, 1 month): 97.2 % w/w | RRT 1.13 (impurity) ([1]; 25° C./60% RH, 1 month): <0.05% | RRT 1.23-1.24 (impurity) ([1]; 25° C./60% RH, 1 month): 0.05% | RRT 1.47-1.51 (impurity) ([1]; 25° C./60% RH, 1 month): 0.13% | Specified impurity* (hydrolysis impurity) ([1]; 25° C./60% RH, 1 month): 0.1% | Total impurities ([1]; 25° C./60% RH, 1 month): 0.3% | Water content ([1]; 25° C./60% RH, 1 month): 0.39% | Z-isomer RRT 0.92-0.93 ([1]; 25° C./60% RH, 1 month): <0.05% | pH ([1]; 25° C./60% RH, 1 month): 1.6 | Any individual purity ([1]; 25° C./60% RH, 3 months): 0.2% | Assay ([1]; 25° C./60% RH, 3 months): 95.4 % w/w | RRT 1.13 (impurity) ([1]; 25° C./60% RH, 3 months): <0.05% | RRT 1.23-1.24 (impurity) ([1]; 25° C./60% RH, 3 months): 0.08% | RRT 1.47-1.51 (impurity) ([1]; 25° C./60% RH, 3 months): 0.05% | Specified impurity* (hydrolysis impurity) ([1]; 25° C./60% RH, 3 months): <0.05% | Total impurities ([1]; 25° C./60% RH, 3 months): 0.7% | Water content ([1]; 25° C./60% RH, 3 months): 0.55% | Z-isomer RRT 0.92-0.93 ([1]; 25° C./60% RH, 3 months): 0.1% | pH ([1]; 25° C./60% RH, 3 months): 1.6 | Any individual purity ([1]; 25° C./60% RH, 6 months): 0.1% | Assay ([1]; 25° C./60% RH, 6 months): 98.3 % w/w | RRT 1.13 (impurity) ([1]; 25° C./60% RH, 6 months): <0.05% | RRT 1.23-1.24 (impurity) ([1]; 25° C./60% RH, 6 months): 0.06% | RRT 1.47-1.51 (impurity) ([1]; 25° C./60% RH, 6 months): <0.05% | Specified impurity* (hydrolysis impurity) ([1]; 25° C./60% RH, 6 months): 0.08% | Total impurities ([1]; 25° C./60% RH, 6 months): 0.4% | Water content ([1]; 25° C./60% RH, 6 months): 0.45% | Z-isomer RRT 0.92-0.93 ([1]; 25° C./60% RH, 6 months): 0.1% | pH ([1]; 25° C./60% RH, 6 months): 1.5 | Any individual purity ([1]; 25° C./60% RH, 12 months): 0.1% | Assay ([1]; 25° C./60% RH, 12 months): 94.6 % w/w | RRT 1.13 (impurity) ([1]; 25° C./60% RH, 12 months): <0.05% | RRT 1.23-1.24 (impurity) ([1]; 25° C./60% RH, 12 months): 0.06% | RRT 1.47-1.51 (impurity) ([1]; 25° C./60% RH, 12 months): <0.05% | Specified impurity* (hydrolysis impurity) ([1]; 25° C./60% RH, 12 months): 0.08% | Total impurities ([1]; 25° C./60% RH, 12 months): 0.2% | Water content ([1]; 25° C./60% RH, 12 months): 0.59% | Z-isomer RRT 0.92-0.93 ([1]; 25° C./60% RH, 12 months): 0.10% | pH ([1]; 25° C./60% RH, 12 months): 1.6 | Any individual purity ([1]; 25° C./60% RH, 18 months): 0.1% | Assay ([1]; 25° C./60% RH, 18 months): 93.9 % w/w | RRT 1.23-1.24 (impurity) ([1]; 25° C./60% RH, 18 months): 0.06% | Specified impurity* (hydrolysis impurity) ([1]; 25° C./60% RH, 18 months): 0.10% | Total impurities ([1]; 25° C./60% RH, 18 months): 0.20% | Water content ([1]; 25° C./60% RH, 18 months): 0.49% | Z-isomer RRT 0.92-0.93 ([1]; 25° C./60% RH, 18 months): <0.05% | pH ([1]; 25° C./60% RH, 18 months): 1.5 | Any individual purity ([1]; 25° C./60% RH, 24 months): 0.10% | Assay ([1]; 25° C./60% RH, 24 months): 94.5 % w/w | RRT 1.13 (impurity) ([1]; 25° C./60% RH, 24 months): <LOQ | RRT 1.23-1.24 (impurity) ([1]; 25° C./60% RH, 24 months): 0.06% | RRT 1.47-1.51 (impurity) ([1]; 25° C./60% RH, 24 months): 0.09% | Specified impurity* (hydrolysis impurity) ([1]; 25° C./60% RH, 24 months): 0.10% | Total impurities ([1]; 25° C./60% RH, 24 months): 0.36% | Water content ([1]; 25° C./60% RH, 24 months): 0.45% | Z-isomer RRT 0.92-0.93 ([1]; 25° C./60% RH, 24 months): 0.05% | pH ([1]; 25° C./60% RH, 24 months): 1.6 | time the lyophilisate is stable ([1]; room temperature): at least 24 months | appearance ([2]; 2-8° C. up to 24 months): yellow to orange freeze dried cake during the whole test period | appearance after reconstitution ([2]; 2-8° C. up to 24 months): yellow to orange solution without visible particles | Any individual purity ([2]; 0 months): 0.4% | Assay ([2]; 0 months): 97.8 % w/w | RRT 1.13 (impurity) ([2]; 0 months): 0.05% | RRT 1.23-1.24 (impurity) ([2]; 0 months): 0.06% | RRT 1.47-1.51 (impurity) ([2]; 0 months): 0.37% | Specified impurity* (hydrolysis impurity) ([2]; 0 months): <0.5% | Total impurities ([2]; 0 months): 0.7% | Water content ([2]; 0 months): 0.33% | Z-isomer RRT 0.92-0.93 ([2]; 0 months): 0.1% | pH ([2]; 0 months): 1.6 | Any individual purity ([2]; 1 month): 0.3% | Assay ([2]; 1 month): 98.4 % w/w | RRT 1.13 (impurity) ([2]; 1 month): <0.05% | RRT 1.23-1.24 (impurity) ([2]; 1 month): 0.05% | RRT 1.47-1.51 (impurity) ([2]; 1 month): 0.32% | Specified impurity* (hydrolysis impurity) ([2]; 1 month): <0.05% | Total impurities ([2]; 1 month): 0.5% | Water content ([2]; 1 month): 0.41% | Z-isomer RRT 0.92-0.93 ([2]; 1 month): 0.1% | pH ([2]; 1 month): 1.6 | Any individual purity ([2]; 3 months): 0.1% | Assay ([2]; 3 months): 95.9 % w/w | RRT 1.13 (impurity) ([2]; 3 months): <0.05% | RRT 1.23-1.24 (impurity) ([2]; 3 months): 0.08% | RRT 1.47-1.51 (impurity) ([2]; 3 months): 0.05% | Specified impurity* (hydrolysis impurity) ([2]; 3 months): <0.05% | Total impurities ([2]; 3 months): 0.3% | Water content ([2]; 3 months): 0.47% | Z-isomer RRT 0.92-0.93 ([2]; 3 months): 0.1% | pH ([2]; 3 months): 1.6 | Any individual purity ([2]; 6 months): 0.1% | Assay ([2]; 6 months): 97.3 % w/w | RRT 1.13 (impurity) ([2]; 6 months): <0.05% | RRT 1.23-1.24 (impurity) ([2]; 6 months): 0.05% | RRT 1.47-1.51 (impurity) ([2]; 6 months): <0.05% | Specified impurity* (hydrolysis impurity) ([2]; 6 months): 0.08% | Total impurities ([2]; 6 months): 0.4% | Water content ([2]; 6 months): 0.37% | Z-isomer RRT 0.92-0.93 ([2]; 6 months): 0.1% | pH ([2]; 6 months): 1.5 | Any individual purity ([2]; 12 months): 0.1% | Assay ([2]; 12 months): 93.9 % w/w | RRT 1.13 (impurity) ([2]; 12 months): <0.05% | RRT 1.23-1.24 (impurity) ([2]; 12 months): 0.06% | RRT 1.47-1.51 (impurity) ([2]; 12 months): <0.05% | Specified impurity* (hydrolysis impurity) ([2]; 12 months): 0.08% | Total impurities ([2]; 12 months): 0.2% | Water content ([2]; 12 months): 0.53% | Z-isomer RRT 0.92-0.93 ([2]; 12 months): <0.05% | pH ([2]; 12 months): 1.6 | Any individual purity ([2]; 18 months): 0.1% | Assay ([2]; 18 months): 94.6 % w/w | RRT 1.13 (impurity) ([2]; 18 months): 0.05% | RRT 1.23-1.24 (impurity) ([2]; 18 months): 0.05% | RRT 1.47-1.51 (impurity) ([2]; 18 months): 0.05% | Specified impurity* (hydrolysis impurity) ([2]; 18 months): 0.10% | Total impurities ([2]; 18 months): 0.3% | Water content ([2]; 18 months): 0.43% | Z-isomer RRT 0.92-0.93 ([2]; 18 months): <0.05% | pH ([2]; 18 months): 1.6 | Any individual purity ([2]; 24 months): 0.10% | Assay ([2]; 24 months): 94.2 % w/w | RRT 1.13 (impurity) ([2]; 24 months): <LOQ | RRT 1.23-1.24 (impurity) ([2]; 24 months): 0.05% | RRT 1.47-1.51 (impurity) ([2]; 24 months): 0.10% | Specified impurity* (hydrolysis impurity) ([2]; 24 months): 0.09% | Total impurities ([2]; 24 months): 0.34% | Water content ([2]; 24 months): 0.39% | Z-isomer RRT 0.92-0.93 ([2]; 24 months): 0.05% | pH ([2]; 24 months): 1.7 | bacterial growth / sterility ([2]; 24 months period): No bacterial growth was detected | reconstitution time ([2]; Table 4a study): up to 3 minutes | degradation on storage ([2]; vials crimp sealed under nitrogen, 5° C., 24 months): no degradation was seen | solubility in water ([3]; after lyophilisation versus prior to (A1)): less soluble in water | solubility on addition of NaCl ([3]; increase in pH generated by NaCl): decreased the solubility | pH of aqueous solution ([4]; 1 mg/ml): 2-3 | pH of best stability ([4]; aqueous media): 1-4 | time over which formation of by-products is suppressed ([4]; aqueous media, 1 mg/ml): up to 24 hrs | hydrolysis in aqueous solvents ([4]; aqueous solvents): readily hydrolyses
